Laboratory results from US7056908B2, “Pharmaceutical compositions and methods for preventing skin tumor formation and causing regression of existing tumors” (priority 1991, dated 2006).

Legend:
primary keratinocytes [1] = type: cell-based, mouse
Description: EGF binding was assessed in 6-well tissue culture dishes plated at a cell density of 2.5×10^6 cells/well (Strickland, J. E. et al, “Interaction of epidermal growth factor with basal and differentiating epidermal cells of mice resistant and sensitive to carcinogenesis,” Carcinogenesis, 5: 735–740, 1984). […] A second set of cultures received, in addition, 1 μg/ml unlabelled EGF to assess non-specific binding of radioactive ligand. Following the incubation period, cultures were washed 4 times with ice-cold binding buffer, harvested in 1.5 ml lysis buffer (0.1 M tris (pH 7.4), 0.5% SDS, 1 mM EDTA), and radioactivity determined by scintillation counting.
Exposure of a variety of cultured cell types to TPA results in inhibition of EGF binding which is attributed to PKC-mediated phosphorylation of the EGF receptor (Diamond, L., “Tumor promoters and cell transformation,” In: D. Grunberger and S. P. Goff. (eds.), Mechanisms of Cellular Transformation by Carcinogenic Agents, pp. 73–133, New York: Pergamon Press. 1987).
Each point is the mean of trilpicate dishes±standard error of the mean.

c-fos mRNA = c-fos mRNA Northern blot in primary keratinocytes; type: cell-based, mouse; settings: for time of maximum c-fos mRNA expression: 8 hour treatment, medium with 0.5% serum
Description: RNA Isolation and Northern Blot Analysis. RNA was isolated by ultracentrifugation of guanidine isothiocyanate lysates through a 5.7M cesium chloride gradient (Chirgwin, J. M. et al, “Isolation of biologically active ribonucleic acid from sources enriched in ribonuclease,” Biochemistry, 18: 5294–5299, 1979). 20 μg of total RNA was loaded per lane and electrophoresed through a 1% agarose gel containing 0.66 M formaldehyde (Davis, L. G. et al, “Basic Methods in Molecular Biology,” New York: Elsevier, 1986). RNA was blotted to reinforced nitrocellulose membrane (BA-S NC; Schleicher & Schuell, Keene, N.H.) and baked at 80° C. in a vacuum oven for 2 hours. Filter were pre-hybridized at 42° overnight in buffer containing 50% formamide as previously described (Yuspa, S. H. et al, “Expression of murine epidermal differentiation markers is tightly regulated by restricted extracellular calcium concentrations in vitro,” J. Cell Biol., 109: 1207–1217, 1989); approximately 20×10^6 dpm of probe was added and hybridization carried out overnight. The final wash performed at 65° using 0.2×SSC with 0.1% SDS. Filters were exposed to Kodak X-Omat AR film at −70° with intensifying screens. Mouse c-fos transcript was detected using a 1.2 kb Bg1 II to Sal I fragment from the Finkel-Biskis-Jinkins murine sarcoma virus sequence (Curran, T. et al, “Structure of the FBJ murine osteosarcoma virus genome: molecular cloning of the associated helper virus and the cellular homologue of the v-fos gene from mouse and human cells,” Mol. Cell. Biol., 3: 914–921, 1983). Following autoradiography, remaining probe was removed by washing in 1% glycerol in deionized water at 80° for 2 minutes (Davis, L. G. et al, “Basic Methods in Molecular Biology,” New York: Elsevier, 1986) and the filter was re-hybridized to a full-length rat glyceraldehyde phosphate dehydrogenase (GAPDH) cDNA in a pUC18 vector (Fort, P. et al, “Various rat adult tissues express only one major mRNA species from the glyceraldehydes-3-phosphate-dehydrogenase multigenic family,” Nucleic. Acids. Res., 13: 1431–1442, 1985). […]

primary keratinocytes [2] = test: Cornified envelope formation in primary keratinocytes; type: cell-based, mouse; settings: 10 nM staurosporine or 160 nM TPA for 24 hours; 7 day old cultures
Description: Cornified Envelope Quantitation. Keratinocytes were analyzed for cornified envelope formation as described (Nagae, S. et al, “Effect of retinoic acid on cornified envelope formation: difference between spontaneous envelope formation in vivo or in vitro and expression of envelope competence,” J. Invest., Dermatol., 89: 51–58, 1987), with minor modifications. Floating cells were harvested by collecting culture medium from each 60 mm dish and combining with two washes using phosphate-buffered saline without Ca^2+ and Ms^+2 (PBS). Cells were pelleted for 5 minutes at 1000 rpm in a benchtop clinical centrifuge and resuspended in 100 μl of lysis buffer (2% sodium dodecyl sulfate (SDS) and 20 mM dithiothreitol in PBS). Attached cells were harvested in 250 μl lysis buffer, combined with the preparation of floating cells, and incubated at 95° for 10 minutes. The non-solubilized, intact cornified envelopes, characteristic of terminally differentiated keratinocytes, were counted using a hemocytometer (Nagae, S. et al, “Effect of retinoic acid on cornified envelope formation: difference between spontaneous envelope formation in vivo or in vitro and expression of envelope competence,” J. Invest. Dermatol., 89: 51–58, 1987).
Floating and attached cell populations were harvested and cornified envelopes isolated. Data are mean values for three separate dishes±standard error of the mean from one experiment.
7 day old primary keratinocytes were cultured with or without 60 nM bryostatin for 15 hours. […] Each data bar is the average value from duplicate dishes with the range indicated by error bars.

[3] = test system: human bladder carcinoma cells; settings: systemic administration at 1/10 or 1/20 the maximum tolerated dose; cited from earlier work
primary keratinocytes [4] = test: Cell toxicity by trypan blue exclusion; type: cell-based, mouse
Description: Miscellaneous Assays. Cell toxicity was determined using trypan blue exclusion as a marker for viable cells. Cells growing in 60 mm culture dishes were washed once with PBS, incubated at room temperature with 1 ml 0.4% trypan blue in normal saline (GIBCO, Rockville, Md.), washed twice with PBS, then placed on ice until cells were counted. Protein in cell lysates was determined using a commercial colorimetric assay (Bio-Rad Laboratories, Richmond, Calif.).
Phase-contrast photomicrographs were taken at the indicated times after beginning treatment. Similar results were obtained in three additional experiments. Magnification was ×90.

primary keratinocytes [5] = test: Ornithine decarboxylase activity in primary keratinocytes; type: cell-based, mouse; settings: 5 hours exposure
Description: Enzyme Assays. Activity of epidermal transglutaminase was determined by measuring cross-linking of ^3H-putrescine to dimethylcasein (20). Cell lysates were incubated at […] for 10 minutes to inactivate tissue transglutaminase. Ornithine decarboxylase activity of cell lysates was determined by quantifying release of ^14CO2 from ^14C-ornithine (Sako, T. et al, “Partial parallelism and partial blockade by bryostatin 1 of effects of phorbol ester tumor promoters on primary mouse epidermal cells,” Cancer Res., 47: 5445–5450, 1987).
Each point is the mean for four dishes±standard error of the mean from one experiment. Similar results were obtained in an additional experiment. As with staurosporine-mediated induction of transglutaminase, this response is restricted to a narrow dose range between 5 and 10 nM.

[6] = test system: grafted SP-1 mouse papilloma cells; test: Tumor formation from grafted SP-1 papilloma cells on nude mice, topical treatment; type: in vivo; settings: 6.25 nmoles/treatment
Description: For grafting, BALB/c-derived nude mice, approximately two months-old, were used as hosts. Animals were anesthetized with Nembutal and sterile surgical technique was used. 0.5×10^6 SP-1 or 308 cells were grafted along with 6–8×10^6 primary SENCAR mouse dermal fibroblasts. […] Cells were removed from culture dishes by treatment with 0.25% trypsin-0.01% EDTA for approximately 10 min. at 36° and washed with medium. Suspensions of papilloma cells and primary dermal fibroblasts were centrifuged 5 min. at 1000 rpm, the medium aspirated, and the cell pellet applied to the graft bed using a sterile plastic transfer pipet. Graft tumors were measured weekly, using calipers, starting three weeks after grafting and for at least 5 additional weeks thereafter. As an approximate tumor volume, the height was multiplied by the smallest and largest lateral measurements. Data are expressed as means i standard error of the mean of approximate tumor volume in mm^3.
Five mice in each group were grafted Feb. 28, 1990 with 0.5×10^6 SP-1 cells+6×10^6 primary SENCAR mouse dermal fibroblasts.
Tumor measurements were begun three weeks after grafting and continued for eight weeks.
Ten mice in each group were grafted Mar. 22, 1990 with 0.5×10^6 SP-1 cells+6×10^6 primary SENCAR mouse dermal fibroblasts.
Ten mice in each group were grafted May 17, 1990 with 0.5×10^6 SP-1 cells+6×10^6 primary SENCAR mouse dermal fibroblasts. […]

Structure (SMILES)	reduction of 125I-EGF binding relative to controls (primary keratinocytes [1]) [%]	time of maximum c-fos mRNA expression (c-fos mRNA) [h]	increase in cornified envelopes relative to control cultures (primary keratinocytes [2]) [fold]	retardation of tumor growth [3]	cells trypan blue positive (primary keratinocytes [4]; 7.5 hour exposure to 1 μM staurosporine) [%]	cells that took up trypan blue (primary keratinocytes [4]; ≦10 nM staurosporine) [%]	c-fos mRNA expression on combined exposure with TPA (c-fos mRNA; staurosporine added just before TPA)	ornithine decarboxylase activity (primary keratinocytes [5])	effect of higher doses on papilloma growth [6]
CCCCCCCCCCCCCC(=O)O[C@@H]1[C@@H](C)[C@@]2(O)[C@@H](C=C(CO)C[C@]3(O)C(=O)C(C)=C[C@@H]23)[C@H]2C(C)(C)[C@]12OC(C)=O [TPA, 12-0-tetradecanoylphorbol-13-acetate, reference compound]	94	6	4	–	–	–	–	–	–
CN[C@@H]1C[C@H]2O[C@@](C)([C@@H]1OC)n1c3ccccc3c3c4c(c5c6ccccc6n2c5c31)C(=O)NC4 [staurosporine]	–	8	–	approximately 60%	74	< 5	higher expression of c-fos MRNA than TPA alone	induction of ornithine decarboxylase activity	appear to stimulate papilloma growth
